Experimental data from ChEMBL document CHEMBL1154071, “Studies towards the identification of putative bioactive conformation of potent vasodilator arylidene N-acylhydrazone derivatives” (Eur J Med Chem, 2009).
Values belong to the compound of their own block, whether it stands above or below them. Activity calls are given as the source filed them. The rule behind the calls is not given here.

Legend:
Aorta [1] = assay: Vasorelaxant activity in endothelium-intact Wistar rat thoracic aortic ring assessed as inhibition of phenylephrine-induced contraction; type: functional, tissue-based
[2] = target: cGMP-dependent 3',5'-cyclic phosphodiesterase (Homo sapiens) (UniProt O00408); assay: Inhibition of PDE2A up to 30 uM
[3] = target: T1, 3',5'-cyclic-AMP phosphodiesterase 4B (Homo sapiens, UniProt Q07343); assay: Inhibition of PDE4B up to 30 uM
[4] = target: cGMP-specific 3',5'-cyclic phosphodiesterase (Homo sapiens) (UniProt O76074); assay: Inhibition of PDE5 up to 30 uM
Aorta [5] = assay: Vasorelaxant activity in endothelium-denuded Wistar rat thoracic aortic ring assessed as inhibition of phenylephrine-induced contraction at 100 uM; type: functional
Aorta [6] = assay: Vasorelaxant activity in endothelium-denuded Wistar rat thoracic aortic ring assessed as inhibition of phenylephrine-induced contraction; type: functional, tissue-based
[7] = target: T1, 3',5'-cyclic-AMP phosphodiesterase 4B; assay: Inhibition of PDE4B
Aorta [8] = assay: Vasorelaxant activity in endothelium-denuded Wistar rat thoracic aortic ring assessed as inhibition of phenylephrine-induced contraction at 500 uM; type: functional
Aorta [9] = assay: Vasorelaxant activity in endothelium-intact Wistar rat thoracic aortic ring assessed as inhibition of phenylephrine-induced contraction at 500 uM; type: functional
Aorta [10] = assay: Vasorelaxant activity in endothelium-intact Wistar rat thoracic aortic ring assessed as complete inhibition of phenylephrine-induced contraction at 20 uM in intact endothelium; type: functional, tissue-based
Aorta [11] = assay: Vasorelaxant activity in endothelium-intact Wistar rat thoracic aortic ring assessed as inhibition of phenylephrine-induced contraction at 200 uM; type: functional
Aorta [12] = assay: Vasorelaxant activity in endothelium-denuded Wistar rat thoracic aortic ring assessed as inhibition of phenylephrine-induced contraction at 200 uM; type: functional

cGMP-dependent 3',5'-cyclic phosphodiesterase (Homo sapiens), sequence (O00408 whole entry): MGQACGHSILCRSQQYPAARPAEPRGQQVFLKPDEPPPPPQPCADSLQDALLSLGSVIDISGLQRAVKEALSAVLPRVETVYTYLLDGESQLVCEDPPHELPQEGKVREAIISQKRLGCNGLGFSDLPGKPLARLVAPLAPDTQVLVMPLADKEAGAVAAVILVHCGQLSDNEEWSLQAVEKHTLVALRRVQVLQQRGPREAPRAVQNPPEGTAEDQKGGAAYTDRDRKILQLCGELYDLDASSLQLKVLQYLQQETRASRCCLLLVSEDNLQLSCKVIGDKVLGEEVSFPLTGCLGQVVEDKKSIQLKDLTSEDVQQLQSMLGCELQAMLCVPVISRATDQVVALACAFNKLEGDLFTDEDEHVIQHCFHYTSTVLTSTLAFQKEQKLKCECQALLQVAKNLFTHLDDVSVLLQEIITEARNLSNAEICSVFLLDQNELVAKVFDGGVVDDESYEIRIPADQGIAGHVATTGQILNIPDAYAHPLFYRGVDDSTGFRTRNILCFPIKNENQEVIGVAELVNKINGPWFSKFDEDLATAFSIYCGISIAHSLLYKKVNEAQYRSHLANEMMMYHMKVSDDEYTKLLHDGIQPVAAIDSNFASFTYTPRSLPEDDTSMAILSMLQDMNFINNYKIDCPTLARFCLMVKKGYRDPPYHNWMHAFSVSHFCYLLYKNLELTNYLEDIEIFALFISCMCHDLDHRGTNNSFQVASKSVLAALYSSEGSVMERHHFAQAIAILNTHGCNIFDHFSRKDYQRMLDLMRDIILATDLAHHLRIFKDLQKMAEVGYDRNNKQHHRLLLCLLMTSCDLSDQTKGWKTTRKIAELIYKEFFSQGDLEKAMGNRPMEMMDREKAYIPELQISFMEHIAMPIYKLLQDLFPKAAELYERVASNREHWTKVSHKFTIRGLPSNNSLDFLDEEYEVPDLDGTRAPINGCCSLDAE
T1 sequence (Q07343 whole entry): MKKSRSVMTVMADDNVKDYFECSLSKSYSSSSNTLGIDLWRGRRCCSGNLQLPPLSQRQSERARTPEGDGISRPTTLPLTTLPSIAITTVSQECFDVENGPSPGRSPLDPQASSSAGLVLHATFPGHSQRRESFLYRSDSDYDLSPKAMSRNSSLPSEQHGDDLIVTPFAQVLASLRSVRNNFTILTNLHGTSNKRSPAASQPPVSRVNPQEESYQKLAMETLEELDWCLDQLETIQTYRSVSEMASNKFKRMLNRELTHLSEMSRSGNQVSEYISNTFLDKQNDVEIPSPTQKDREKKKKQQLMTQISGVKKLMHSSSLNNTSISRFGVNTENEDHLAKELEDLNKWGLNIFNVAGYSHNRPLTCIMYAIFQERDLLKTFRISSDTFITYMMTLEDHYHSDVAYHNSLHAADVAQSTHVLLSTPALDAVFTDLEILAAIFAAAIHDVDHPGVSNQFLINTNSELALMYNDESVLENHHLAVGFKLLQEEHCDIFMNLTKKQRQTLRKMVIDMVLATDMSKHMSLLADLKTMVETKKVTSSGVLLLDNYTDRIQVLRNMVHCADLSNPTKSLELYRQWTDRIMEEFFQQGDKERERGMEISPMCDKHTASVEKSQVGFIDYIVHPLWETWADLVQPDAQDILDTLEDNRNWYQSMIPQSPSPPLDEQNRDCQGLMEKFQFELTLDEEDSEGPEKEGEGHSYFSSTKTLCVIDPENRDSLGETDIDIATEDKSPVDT

IC50 (Aorta [1]): 74 µM
Activity [2]: inactive
Activity [3]: inactive
Activity [4]: inactive
Compound: O=C(N/N=C/c1cccs1)c1ccc2c(c1)OCO2
Activity (Aorta [1]): Dose-dependent effect
inhibition at 100 µM (Aorta [5]): < 50%

IC50 (Aorta [1]): 81 µM
Compound: O=C(N/N=C/c1ccccc1)c1ccc2c(c1)OCO2
inhibition at 500 µM (Aorta [8]): < 50%
inhibition at 500 µM (Aorta [9]): 70.7%

IC50 (Aorta [1]): 3.5 µM
IC50 (Aorta [6]): 11.1 µM
Compound: CN(/N=C/c1ccccc1)C(=O)c1ccc2c(c1)OCO2
Activity (Aorta [10]): Active

IC50 (Aorta [1]): 40.8 µM
IC50 (Aorta [6]): 15.7 µM
Compound: CN(/N=C/c1ccco1)C(=O)c1ccc2c(c1)OCO2

The remaining lines, values behind:

Compound: CN(/N=C/c1ccc[nH]1)C(=O)c1ccc2c(c1)OCO2
IC50 (Aorta [1]): 3.1 µM
IC50 (Aorta [6]): 17.8 µM

Compound: CN(/N=C/c1cccs1)C(=O)c1ccc2c(c1)OCO2
Activity (Aorta [1]): Dose-dependent effect
IC50 (Aorta [1]): 10.2 µM
Activity [2]: inactive
IC50 [7]: > 30 µM
Activity [4]: inactive
IC50 (Aorta [6]): 18.5 µM

Compound: O=C(N/N=C/c1ccco1)c1ccc2c(c1)OCO2
inhibition at 500 µM (Aorta [8]): < 50%
inhibition at 500 µM (Aorta [9]): < 50%

Compound: O=C(N/N=C/c1ccc[nH]1)c1ccc2c(c1)OCO2
inhibition at 200 µM (Aorta [11]): < 50%
inhibition at 200 µM (Aorta [12]): < 50%
